Measured values as given in patent US7259011B2, “Pluripotent adult stem cells” (priority 2004, dated 2007).
Where two headings read alike, the source gives them in different places.

Tested on: PPASCs
Text: PPASCs were thawed or trypsinized from expansion cultures and plated at 20,000 cells per 16 mm well in 24-well gelatin-coated culture plates (Corning Glass Works, Corning, N.Y.). All wells contained EMEM and 10% pre-selected horse serum. The control group remained in this medium, while the experimental wells contained media supplemented with dexamethasone (Sigma). Dexamethasone used were logarithmic concentrations from 10^−10 to 10^−6 M. Cultures were fixed and assayed for phenotypes at one-week intervals up to five weeks.
The immunohistochemical protocol typically used was adopted from Romero-Ramos et al. (2002)^3:
8) 0.25 ml of the primary antibody in PBS was added for 60 minutes at 37° C. • Antibodies used: Table 2
10) A second blocking step of 1% Goat Serum in PBS with 0.5% Tween was performed for 20 minutes preceding the addition of the secondary antibody. • 11) The cells received 0.25 ml of horse-radish peroxidase conjugated IgG secondary antibody that was diluted with PBS to a concentration of 1:1500 or secondary antibody conjugated with either FITC or TRITC fluorochrome. • 12) After 30 minutes of incubation at 37° C. with the secondary antibody, the wells were rinsed with PBS five times. If the secondary antibody was conjugated to fluorochrome, photographs were taken after this step. • 13) 0.25 ml of True Blue or DAB solution was added and light protected for up to 20 minutes. • 14) Five rinses of dH2O followed. • 15) Photographs were taken on an Olympus Inverted Scope Model IMT light microscope.

Compound: C[C@@H]1C[C@H]2[C@@H]3CCC4=CC(=O)C=C[C@]4(C)[C@@]3(F)[C@@H](O)C[C@]2(C)[C@@]1(O)C(=O)CO [dex, dexamethasone]
- concentration at which cells containing vesicles (Sudan Black B stained, adipocytes) were observed: 10^−9 to 10^−6 M
- concentration at which induction of endothelial cells reproducibly occurred: ≥ 10^−8 M
- concentration giving the highest quantity of hepatocytes: 10^−8 M
- AFP stained cells (liver; α-fetoprotein) (10^−6 M dex): + (+ = 1–5 cells seen per culture well.)
- CIICI stained cells (cartilage; type II collagen) (10^−6 M dex): − (− = no stained cells seen per culture well.)
- CNPase stained cells (glial cells) (10^−6 M dex): − (− = no stained cells seen per culture well.)
- CT3 stained cells (cardiac muscle; cardiac troponin T) (10^−6 M dex): + (+ = 1–5 cells seen per culture well.)
- Desmin stained cells (myogenic precursor cells) (10^−6 M dex): + (+ = 1–5 cells seen per culture well.)
- GFAP stained cells (astrocytes) (10^−6 M dex): − (− = no stained cells seen per culture well.)
- IA4 stained cells (smooth muscle; α-smooth muscle actin) (10^−6 M dex): + (+ = 1–5 cells seen per culture well.)
- IL-1β stained cells (10^−6 M dex): + (+ = 1–5 cells seen per culture well.)
- LDL uptake (fluorescent labeled acetylated low density lipoprotein, 20 min) (10^−6 M dex): ++ (++ = 5–10 cells observed per culture well.)
- MF-20 stained cells (skeletal muscle; heavy chain of myosin) (10^−6 M dex): − (− = no stained cells seen per culture well.)
- MPIII stained cells (bone; osteopontin) (10^−6 M dex): − (− = no stained cells seen per culture well.)
- P2B1 stained cells (endothelial cells) (10^−6 M dex): ++ (++ = 5–10 cells observed per culture well.)
- P4A4 stained cells (endothelial cells) (10^−6 M dex): + (+ = 1–5 cells seen per culture well.)
- Sudan Black B stained cells (fat) (10^−6 M dex): ++ (++ = 5–10 cells observed per culture well.)
- Talin stained cells (fibroblasts) (10^−6 M dex): − (− = no stained cells seen per culture well.)
- Trop I stained cells (cardiac muscle; cardiac troponin I) (10^−6 M dex): + (+ = 1–5 cells seen per culture well.)
- WVIDI stained cells (bone; bone sialoproteins I and II) (10^−6 M dex): − (− = no stained cells seen per culture well.)
- AFP stained cells (liver; α-fetoprotein) (10^−7 M dex): ++ (++ = 5–10 cells observed per culture well.)
- CIICI stained cells (cartilage; type II collagen) (10^−7 M dex): + (+ = 1–5 cells seen per culture well.)
- CNPase stained cells (glial cells) (10^−7 M dex): − (− = no stained cells seen per culture well.)
- CT3 stained cells (cardiac muscle; cardiac troponin T) (10^−7 M dex): ++ (++ = 5–10 cells observed per culture well.)
- Desmin stained cells (myogenic precursor cells) (10^−7 M dex): + (+ = 1–5 cells seen per culture well.)
- GFAP stained cells (astrocytes) (10^−7 M dex): − (− = no stained cells seen per culture well.)
- IA4 stained cells (smooth muscle; α-smooth muscle actin) (10^−7 M dex): ++ (++ = 5–10 cells observed per culture well.)
- IL-1β stained cells (10^−7 M dex): + (+ = 1–5 cells seen per culture well.)
- LDL uptake (fluorescent labeled acetylated low density lipoprotein, 20 min) (10^−7 M dex): ++ (++ = 5–10 cells observed per culture well.)
- MF-20 stained cells (skeletal muscle; heavy chain of myosin) (10^−7 M dex): − (− = no stained cells seen per culture well.)
- MPIII stained cells (bone; osteopontin) (10^−7 M dex): + (+ = 1–5 cells seen per culture well.)
- P2B1 stained cells (endothelial cells) (10^−7 M dex): + (+ = 1–5 cells seen per culture well.)
- P4A4 stained cells (endothelial cells) (10^−7 M dex): + (+ = 1–5 cells seen per culture well.)
- Sudan Black B stained cells (fat) (10^−7 M dex): ++ (++ = 5–10 cells observed per culture well.)
- Talin stained cells (fibroblasts) (10^−7 M dex): ++ (++ = 5–10 cells observed per culture well.)
- Trop I stained cells (cardiac muscle; cardiac troponin I) (10^−7 M dex): + (+ = 1–5 cells seen per culture well.)
- WVIDI stained cells (bone; bone sialoproteins I and II) (10^−7 M dex): + (+ = 1–5 cells seen per culture well.)
- AFP stained cells (liver; α-fetoprotein) (10^−8 M dex): + (+ = 1–5 cells seen per culture well.)
- CIICI stained cells (cartilage; type II collagen) (10^−8 M dex): ++ (++ = 5–10 cells observed per culture well.)
- CNPase stained cells (glial cells) (10^−8 M dex): + (+ = 1–5 cells seen per culture well.)
- CT3 stained cells (cardiac muscle; cardiac troponin T) (10^−8 M dex): + (+ = 1–5 cells seen per culture well.)
- Desmin stained cells (myogenic precursor cells) (10^−8 M dex): + (+ = 1–5 cells seen per culture well.)
- GFAP stained cells (astrocytes) (10^−8 M dex): − (− = no stained cells seen per culture well.)
- IA4 stained cells (smooth muscle; α-smooth muscle actin) (10^−8 M dex): + (+ = 1–5 cells seen per culture well.)
- IL-1β stained cells (10^−8 M dex): + (+ = 1–5 cells seen per culture well.)
- LDL uptake (fluorescent labeled acetylated low density lipoprotein, 20 min) (10^−8 M dex): + (+ = 1–5 cells seen per culture well.)
- MF-20 stained cells (skeletal muscle; heavy chain of myosin) (10^−8 M dex): + (+ = 1–5 cells seen per culture well.)
- MPIII stained cells (bone; osteopontin) (10^−8 M dex): + (+ = 1–5 cells seen per culture well.)
- P2B1 stained cells (endothelial cells) (10^−8 M dex): − (− = no stained cells seen per culture well.)
- P4A4 stained cells (endothelial cells) (10^−8 M dex): + (+ = 1–5 cells seen per culture well.)
- Sudan Black B stained cells (fat) (10^−8 M dex): + (+ = 1–5 cells seen per culture well.)
- Talin stained cells (fibroblasts) (10^−8 M dex): ++ (++ = 5–10 cells observed per culture well.)
- Trop I stained cells (cardiac muscle; cardiac troponin I) (10^−8 M dex): + (+ = 1–5 cells seen per culture well.)
- WVIDI stained cells (bone; bone sialoproteins I and II) (10^−8 M dex): + (+ = 1–5 cells seen per culture well.)
- AFP stained cells (liver; α-fetoprotein) (10^−9 M dex): + (+ = 1–5 cells seen per culture well.)
- CIICI stained cells (cartilage; type II collagen) (10^−9 M dex): + (+ = 1–5 cells seen per culture well.)
- CNPase stained cells (glial cells) (10^−9 M dex): ++ (++ = 5–10 cells observed per culture well.)
- CT3 stained cells (cardiac muscle; cardiac troponin T) (10^−9 M dex): − (− = no stained cells seen per culture well.)
- Desmin stained cells (myogenic precursor cells) (10^−9 M dex): ++ (++ = 5–10 cells observed per culture well.)
- GFAP stained cells (astrocytes) (10^−9 M dex): ++ (++ = 5–10 cells observed per culture well.)
- IA4 stained cells (smooth muscle; α-smooth muscle actin) (10^−9 M dex): − (− = no stained cells seen per culture well.)
- IL-1β stained cells (10^−9 M dex): − (− = no stained cells seen per culture well.)
- LDL uptake (fluorescent labeled acetylated low density lipoprotein, 20 min) (10^−9 M dex): − (− = no stained cells seen per culture well.)
- MF-20 stained cells (skeletal muscle; heavy chain of myosin) (10^−9 M dex): + (+ = 1–5 cells seen per culture well.)
- MPIII stained cells (bone; osteopontin) (10^−9 M dex): + (+ = 1–5 cells seen per culture well.)
- P2B1 stained cells (endothelial cells) (10^−9 M dex): − (− = no stained cells seen per culture well.)
- P4A4 stained cells (endothelial cells) (10^−9 M dex): − (− = no stained cells seen per culture well.)
- Sudan Black B stained cells (fat) (10^−9 M dex): − (− = no stained cells seen per culture well.)
- Talin stained cells (fibroblasts) (10^−9 M dex): + (+ = 1–5 cells seen per culture well.)
- Trop I stained cells (cardiac muscle; cardiac troponin I) (10^−9 M dex): − (− = no stained cells seen per culture well.)
- WVIDI stained cells (bone; bone sialoproteins I and II) (10^−9 M dex): + (+ = 1–5 cells seen per culture well.)
- AFP stained cells (liver; α-fetoprotein) (10^−10 M dex): − (− = no stained cells seen per culture well.)
- CIICI stained cells (cartilage; type II collagen) (10^−10 M dex): − (− = no stained cells seen per culture well.)
- CNPase stained cells (glial cells) (10^−10 M dex): ++ (++ = 5–10 cells observed per culture well.)
- CT3 stained cells (cardiac muscle; cardiac troponin T) (10^−10 M dex): − (− = no stained cells seen per culture well.)
- Desmin stained cells (myogenic precursor cells) (10^−10 M dex): + (+ = 1–5 cells seen per culture well.)
- GFAP stained cells (astrocytes) (10^−10 M dex): + (+ = 1–5 cells seen per culture well.)
- IA4 stained cells (smooth muscle; α-smooth muscle actin) (10^−10 M dex): − (− = no stained cells seen per culture well.)
- IL-1β stained cells (10^−10 M dex): − (− = no stained cells seen per culture well.)
- LDL uptake (fluorescent labeled acetylated low density lipoprotein, 20 min) (10^−10 M dex): − (− = no stained cells seen per culture well.)
- MF-20 stained cells (skeletal muscle; heavy chain of myosin) (10^−10 M dex): + (+ = 1–5 cells seen per culture well.)
- MPIII stained cells (bone; osteopontin) (10^−10 M dex): + (+ = 1–5 cells seen per culture well.)
- P2B1 stained cells (endothelial cells) (10^−10 M dex): − (− = no stained cells seen per culture well.)
- P4A4 stained cells (endothelial cells) (10^−10 M dex): − (− = no stained cells seen per culture well.)
- Sudan Black B stained cells (fat) (10^−10 M dex): − (− = no stained cells seen per culture well.)
- Talin stained cells (fibroblasts) (10^−10 M dex): − (− = no stained cells seen per culture well.)
- Trop I stained cells (cardiac muscle; cardiac troponin I) (10^−10 M dex): − (− = no stained cells seen per culture well.)
- WVIDI stained cells (bone; bone sialoproteins I and II) (10^−10 M dex): + (+ = 1–5 cells seen per culture well.)
- Von Kossa's stain of multilayered nodules (mineral) (after 3 weeks of treatment): mineralized
- Alcian blue pH 1.0 staining (cartilage) (pH 1): sulfated proteoglycans were detected
